From patent publication US20130217694A1, “METHOD OF REDUCING THE SEVERITY OF INFLAMMATORY DERMATOLOGICAL CONDITIONS” (Allergan, Inc.., priority 2003, published 2013)
Entries after “also recorded” stand apart in the source; their conditions may differ.

Legend:
mice [1] = details: intraperitoneal dosing, wildtype mice; result in words
Procedure: The tactile hypersensitivity of 5-6 mice per group was scored every five minutes between 15 and 50 minutes following intraperitoneal dosing. […] In addition, the locomoter activity of 5-6 mice per group was measured in a five minute period 30 minutes following intraperitoneal dosing. The locomoter activity relative to vehicle-treated animals was expressed as a percentage; percentage sedation was calculated as 100% minus the percent locomoter activity.

mice [2] = experiment: Sulprostone-induced tactile hypersensitivity in mice; assay type: in vivo, mouse; details: for analgesic activity in sulprostone-induced tactile hypersensitivity: result in words
Procedure: The activity of a synthetic EP1/EP3 receptor-selective prostaglandin agonist, sulprostone, also was assayed.
Spinal drug injections were performed as follows. […] Briefly, a sterile 30-gauge ½ inch needle attached to a microsyringe was inserted between the L5 and L6 vertebrae. The mouse was held firmly by the pelvic girdle in one hand, while the syringe was held in the other hand at an angle of approximately 20° above the vertebral column. The needle was inserted into the tissue to one side of the L6 spinous process, into the groove between the spinous and transverse processes. The needle angle was decreased to about 10°, and the needle slowly advanced forward into the intervertebral space until a pop was felt and there was a visible serpentine tail movement. Compounds were slowly injected in the subarachnoid space in a volume of 5 μl. Each compound was tested at multiple doses. The minimal efficacious dose was used for all subsequent experiments.
Sensitivity to light touch was quantified by scoring the response of mice to light stroking of their flanks with a small paintbrush, which is not normally painful. […] Statistical calculations of significance for in vivo studies were done using a two-tailed Students t-test.

[3] = molecular target: T1, hamster α-1B adrenergic receptor (Mesocricetus auratus, UniProt P18841); assay type: cell-based; details: for hamster α1B % E: percent efficacy relative to phenylephrine; for agonist activity at the α-1B receptor: result in words
T1 sequence (P18841 1-515): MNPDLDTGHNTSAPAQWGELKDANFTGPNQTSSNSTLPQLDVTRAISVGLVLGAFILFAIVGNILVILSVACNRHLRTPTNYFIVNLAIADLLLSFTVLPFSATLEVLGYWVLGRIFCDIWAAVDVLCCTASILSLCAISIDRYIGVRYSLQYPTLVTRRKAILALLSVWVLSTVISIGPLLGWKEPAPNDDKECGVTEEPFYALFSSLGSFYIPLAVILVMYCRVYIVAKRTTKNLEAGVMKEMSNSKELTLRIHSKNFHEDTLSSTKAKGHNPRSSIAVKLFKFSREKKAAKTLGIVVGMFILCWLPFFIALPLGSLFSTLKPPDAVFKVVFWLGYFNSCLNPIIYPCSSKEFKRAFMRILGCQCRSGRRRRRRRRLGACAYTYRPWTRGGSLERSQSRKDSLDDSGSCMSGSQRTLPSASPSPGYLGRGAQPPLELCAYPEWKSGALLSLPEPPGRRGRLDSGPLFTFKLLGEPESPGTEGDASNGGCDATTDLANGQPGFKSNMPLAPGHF
Procedure: The bovine α-1A and hamster α-1B receptor supernatants were added, in varying amounts, to naive HEK293 cells, which were then incubated for 48 hours. The transduced cell populations were replated at a lower density and grown in media containing 0.25 ug/ml puromycin. […] Receptor density was measured in a prazosin radioligand binding assay.
Intracellular Ca^+2 responses were measured as follows in HEK293 cells stably expressing either the bovine α-1A or hamster α-1B adrenergic receptor. Between 40,000 to 50,000 cells were plated per well in 96-well poly-D-lysine coated plates in 0.2 ml DMEM containing 10% heat-inactivated fetal calf serum, 1% antibiotic-antimycotic and 0.25 μg/ml puromycin one day prior to use. Cells were washed twice with HBSS supplemented with 10 mM HEPES, 2.0 mM CaCl2 and 2.5 mM probenicid, and subsequently incubated at 37° C. for 60 minutes with 4 μM Fluo-4 (Molecular Probes; Eugene, Oreg.). The extracellular dye was washed from the plates twice prior to placing the plates in the fluorometric imaging plate reader (FLIPR; Molecular Devices; Sunnyvale, Calif.). Ligands were diluted in HBSS and aliquoted into a 96-well microplate. Drugs were tested over the concentration range of 0.64 nM to 10,000 nM. Data for Ca^+2 responses were obtained in arbitrary fluorescence units.

## Brc1c(NC2=NCCN2)ccc2nccnc12 [Brimonidine, 5-bromo-6-(2-imidazolin-2-ylamino)quinoxaline]
Mice [1]
  alleviation of sulprostone-induced tactile hypersensitivity in the absence of sedation: alleviates sulprostone-induced tactile hypersensitivity in the absence of sedation
Mice [2]; wildtype mice
  analgesic activity in sulprostone-induced tactile hypersensitivity: analgesic
Mice [2]; α-2A knockout mice
  analgesic activity in sulprostone-induced tactile hypersensitivity: neither clonidine nor brimonidine were analgesic
Mice [2]; α-2C knockout mice
  analgesic activity in sulprostone-induced tactile hypersensitivity: analgesic
[3]
  hamster α1B % E: 12%
  agonist activity at the α-1B receptor: no activity

## Clc1cccc(Cl)c1N=C1NCCN1 [Clonidine]
Mice [2]; wildtype mice
  analgesic activity in sulprostone-induced tactile hypersensitivity: analgesic in wildtype mice; also recorded: analgesic in wild type mice
Mice [2]; α-2A knockout mice
  analgesic activity in sulprostone-induced tactile hypersensitivity: not in α-2A or α-2C knockout mice; also recorded: neither clonidine nor brimonidine were analgesic
Mice [2]; α-2C knockout mice, prazosin 100 ng/kg i.p., clonidine 400 ng i.t., sulprostone 200 ng i.t.
  analgesic activity of clonidine co-administered with prazosin: restore the analgesic activity
Mice [2]; α-2C knockout mice
  analgesic activity in sulprostone-induced tactile hypersensitivity: not in α-2A or α-2C knockout mice; also recorded: not in α-2C knockout mice
[3]
  hamster α1B % E: 63%
  agonist activity at the α-1B receptor: partial agonists
